# Test results as given in patent publication US20240148722A1, “SMALL MOLECULES THAT BIND TO TDP-43 FOR THE TREATMENT OF ALS AND RELATED DISORDERS” (Biohaven Therapeutics Ltd., priority 2021, published 2024).
# Experiments:
# TDP-43 [1] = molecular target: T1, TDP-43 (Homo sapiens, UniProt Q13148); conditions: using bt-(TG)6 and not bt-TAR32; Biochimie, 2012, 94, 1974-1981; cited from earlier work
# TDP-43 [2] = molecular target: T1, TDP-43; conditions: cited from earlier work
# TDP-43 1-260 = TDP-43 1-260 (Homo sapiens, UniProt Q13148); assay: TDP-43 alpha-screen assay with bt-TAR32; assay type: binding; conditions: bt-TAR32 0.125 nM; 3 h at room temperature; read-out: Activity (μM) in the TDP-43-DNA alpha-screen assay
# Chain of TDP-43 1-260 (Q13148 1-260): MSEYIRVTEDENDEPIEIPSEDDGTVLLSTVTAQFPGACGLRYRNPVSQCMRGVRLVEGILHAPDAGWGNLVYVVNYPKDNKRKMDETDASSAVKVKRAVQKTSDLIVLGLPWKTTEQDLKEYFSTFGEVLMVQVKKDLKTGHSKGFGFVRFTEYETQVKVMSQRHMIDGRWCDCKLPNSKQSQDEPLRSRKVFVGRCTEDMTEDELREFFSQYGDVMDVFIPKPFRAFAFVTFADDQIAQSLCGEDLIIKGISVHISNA
# Procedure: Alpha-screen assay. […] Briefly, assays contained TDP-43 1-260 (15 ng/mL, 0.27 nM), 10 mg/mL of both streptavidin donor beads and anti-GST acceptor beads with various concentrations of bt-TAR32 (˜18 to +14 in the HIV1 LTR) and test compound in a final volume of 20 mL of 25 mM Tris, 0.1% CHAPS, pH 7.4 in white, opaque low volume 384-well plates. After 3 h incubation at room temperature, the AlphaScreen signal was measured using a Synergy 2 plate reader (Biotek, Winooski, VT). […] Nonspecific binding was determined in the presence of 10 mM bt-TDP43 and was less than 10% of total binding. IC50 values were obtained from nonlinear regression fits of the data to a one-site binding model using Graph Pad Prism, version 5.0 (GraphPad Software, San Diego, CA). Comparison of competitive inhibition and mixed type inhibition models were evaluated using the F-test on global fits of the data also in Graph Pad Prism, version 5.0.
# T1 sequence (Q13148 whole entry): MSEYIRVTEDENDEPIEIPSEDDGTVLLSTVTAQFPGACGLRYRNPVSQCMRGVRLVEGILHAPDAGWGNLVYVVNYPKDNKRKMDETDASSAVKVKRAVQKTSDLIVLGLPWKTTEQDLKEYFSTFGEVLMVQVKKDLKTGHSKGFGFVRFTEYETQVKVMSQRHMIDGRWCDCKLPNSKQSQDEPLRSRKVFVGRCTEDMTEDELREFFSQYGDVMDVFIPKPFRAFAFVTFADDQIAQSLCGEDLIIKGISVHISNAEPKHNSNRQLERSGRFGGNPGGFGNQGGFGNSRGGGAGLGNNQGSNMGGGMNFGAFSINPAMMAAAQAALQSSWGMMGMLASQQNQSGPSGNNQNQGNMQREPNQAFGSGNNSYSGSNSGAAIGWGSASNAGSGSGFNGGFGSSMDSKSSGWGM
Compound,IC50 (TDP-43 1-260),also measured
COc1ccc(-c2cc(NCCCN(C)C)c3ccccc3n2)cc1 [Compound I],,activity in a TDP-43 alpha-screen (TDP-43 [1]): active; caspase-7 cleavage of TDP-43 (TDP-43 [2]): promoted
COc1ccc(-c2cc(NCCCN(C)C)cc(-c3ccc(C[C@@H](N)C(=O)O)cc3)n2)cc1 [Example 62],1.85 µM,
"COc1ccc(-c2cc(NCC(F)(F)CN)cc(-c3ccc(N4CCN(C)CC4)cc3)n2)cc1 [Example 63, N-(3-amino-2,2-difluoropropyl)-2-(4-methoxyphenyl)-6-(4-(4-methylpiperazin-1-yl)phenyl)pyridin-4-amine]",1.49 µM,
COc1ccc(-c2cc(/N=N\C3CCNCC3)cc(-c3ccc(N4CCNCC4)cc3)n2)cc1 [Example 64],1.48 µM,
COc1ccc(-c2cc(NCCCN3CCC4NCCC43)cc(-c3ccc(N4CCNCC4)cc3)n2)cc1 (stereo not shown) [Example 65],1.32 µM,
COc1ccc(-c2cc(NCCCOCCCN)cc(-c3ccc(N4CCNCC4)cc3)n2)cc1 [Example 66],1.2 µM,
COc1ccc(-c2cc(NCC3CCCN(C)C3)cc(-c3ccc(N4CCN(C)CC4)cc3)n2)cc1 (stereo not shown) [Example 67],1.17 µM,
COc1ccc(-c2cc(NC3CCNCC3F)cc(-c3ccc(N4CCN(C)CC4)cc3)n2)cc1 (stereo not shown) [Example 68],0.89 µM,
COc1ccc(-c2cc(NCCCN(C)CCCN)cc(-c3ccc(N4CCCCC4)cc3)n2)cc1 [Example 69],0.74 µM,
COc1ccc(-c2cc(NCCN(C)CCN)cc(-c3ccc(N4CCNCC4)cc3)n2)cc1 [Example 70],0.63 µM,
"COc1ccc(-c2cc(NCCCN(C)CCCN)cc(CCC3CC3)n2)cc1 [Example 71, N-{3-[(3-aminopropyl)(methyl)amino]propyl}-2-(2-cyclopropylethyl)-6-(4-methoxyphenyl)pyridin-4-amine]",0.57 µM,
COc1ccc(-c2cc(NCCCN3CCNCC3)cc(-c3ccc(N4CCN(C)CC4)cc3)n2)cc1 [Example 72],0.55 µM,
"COc1ccc(-c2cc(NCCOCCN)cc(-c3ccc(N4CCNCC4)cc3)n2)cc1 [Example 73, N-(2-(2-aminoethoxy)ethyl)-2-(4-methoxyphenyl)-6-(4-(piperazin-1-yl)phenyl)pyridin-4-amine]",0.49 µM,
COc1ccc(-c2cc(NCCN3CCNCC3)cc(-c3ccc(N4CCNCC4)cc3)n2)cc1 [Example 74],0.49 µM,
COc1ccc(-c2cc(N[C@@H]3CCNC[C@@H]3OC)cc(-c3ccc(N4CCN(C)CC4)cc3)n2)cc1 [Example 75],0.36 µM,
COc1ccc(-c2cc(NCCCN(C)CCCN)cc(-c3ccc(N4CCN(C)C(F)C4)cc3)n2)cc1 (stereo not shown) [Example 76],0.23 µM,
CN(CCCN)CCCNc1cc(-c2ccc(-c3ccncc3)cc2)nc(-c2ccc(N3CCNCC3)cc2)c1 [Example 77],0.13 µM,
"COc1ccc(-c2cc(NCCCN(C)CCCN)nc(-c3ccc(N4CCNCC4)cc3)n2)cc1 [Example 78, N-{3-[(3-aminopropyl)(methyl)amino]propyl}-6-(4-methoxyphenyl)-2-[4-(piperazin-1-yl)phenyl]pyrimidin-4-amine]",0.2 µM,

Compound,IC50 (TDP-43 1-260),also measured
COc1ccc(-c2cc(NCCCN(C)C)cc(-c3ccc(OCCCN(C)C)cc3)n2)cc1 [Example 80],0.21 µM,
COc1ccc(-c2cc(NCCCN(C)C)cc(-c3ccc(OCCCN(C)C)nc3)n2)cc1 [Example 81],0.72 µM,
CN(C)CCCNc1cc(-c2ccc(OCCCN3CCCC3)cc2)nc2ccccc12 [Example 82],0.11 µM,
COc1cc2c(NCCCN(C)C)ccnc2cc1OCCN1CCCC1 [Example 83],0.19 µM,
CN(C)CCCNc1cc(-c2ccc(OCCn3cccn3)cc2)nc2ccccc12 [Example 84],0.55 µM,
"N[C@H]1C[C@H](Nc2cc(-c3ccc(N4CCNCC4)cc3)nc3ccsc23)C1 [Example 85, (1r,3r)-N1-(5-(4-(piperazin-1-yl)phenyl)thieno[3,2-b]pyridin-7-yl)cyclobutane-1,3-diamine]",0.16 µM,
NCCCNc1cc(-c2ccc(N3CCNCC3)cc2)nc2ccsc12 [Example 86],0.2 µM,
NCCCNc1n[nH]c2cc(-c3ccc(N4CCNCC4)cc3)ccc12 [Example 87],0.15 µM,
"COc1ccc(-c2cc(N[C@H]3C[C@H](N)C3)cc(-c3cccc(OCCN4CCCC4)c3)n2)cc1 [Example 88, trans-N1-(2-(3-(2-(pyrrolidin-1-yl)ethoxy)phenyl)-6-(4-methoxyphenyl)pyridin-4-yl)cyclobutane-1,3-diamine]",0.18 µM,
"COc1ccc(-c2cc(NCCCN(C)C)cc(-c3cccc(OCCCN(C)C)c3)n2)cc1 [Example 89, 2-(3-(3-(dimethylamino)propoxy)phenyl)-N-(3-(dimethylamino)propyl)-6-(4-methoxyphenyl)pyridin-4-amine]",0.17 µM,
COc1ccc(-c2cc(N[C@H]3CC[C@H](N)CC3)cc(-c3cccc(OCCN4CCCC4)c3)n2)cc1 [Example 90],0.09 µM,
COc1ccc(-c2cc(NCCCN(C)C)cc(-c3cccc(OCCN4CCCC4)c3)n2)cc1 [Example 91],0.16 µM,
COc1ccc(-c2cc(NCCCN(C)C)cc(-c3cccc(OCCN(C)C)c3)n2)cc1 [Example 92],0.34 µM,
"COc1ccc(-c2cc(N[C@H]3CC[C@H](N)CC3)cc(-c3cccc(OCCN(C)C)c3)n2)cc1 [Example 93, trans-N1-(2-(3-(2-(dimethylamino)ethoxy)phenyl)-6-(4-methoxyphenyl)pyridin-4-yl)cyclohexane-1,4-diamine]",0.11 µM,
"COc1ccc(-c2cc(N[C@H]3C[C@H](N)C3)cc(-c3ccc(CN(C)CCN(C)C)o3)n2)cc1 [Example 96, N1-{2-[5-({[2-(dimethylamino)ethyl](methyl)amino}methyl)furan-2-yl]-6-(4-methoxyphenyl)pyridin-4-yl}cyclobutane-1,3-diamine]",2.4 µM,
"Cis-N1-(2-(3-(2-(pyrrolidin-1-yl)ethoxy)phenyl)-6-(4-methoxyphenyl)pyridin-4-yl)cyclobutane-1,3-diamine [Example 94]",0.49 µM,
Ethyl 4-(2-(4-methoxyphenyl)-6-(4-(piperazin-1-yl)phenyl)pyridin-4-ylamino)piperidine-1-carboxylate [Example 49],5.78 µM,
"N^1-(4-(4-methoxyphenyl)-6-(4-(piperazin-1-yl)phenyl)pyridin-2-yl)-N^3,N^3-dimethylpropane-1,3-diamine [Example 79]",1.09 µM,
